According to ChEMBL document CHEMBL4152322, “Dihydropyrimidinone/1,2,3-triazole hybrid molecules: Synthesis and anti-varicella-zoster virus (VZV) evaluation” (Eur J Med Chem, 2018):
The source made the active and inactive calls. The rule behind the calls is not given here.

Columns and labels:
Human alphaherpesvirus 3 [1] = experiment: Antiviral activity against thymidine kinase expressing Varicella-Zoster virus Oka infected in human HEL cells assessed as reduction in plaque formation after 5 days; assay type: functional, organism-based; settings: Human alphaherpesvirus 3, strain Oka vaccine, 120 h
Human betaherpesvirus 5 [2] = experiment: Antiviral activity against HCMV AD169 infected in human HEL cells assessed as reduction in virus-induced cytopathic effect after 7 days; assay type: functional, organism-based
Human betaherpesvirus 5 [3] = experiment: Antiviral activity against HCMV Davis infected in human HEL cells assessed as reduction in virus-induced cytopathic effect after 7 days; assay type: functional, organism-based
Human alphaherpesvirus 3 [4] = experiment: Antiviral activity against thymidine kinase deficient Varicella-Zoster virus 07-1 infected in human HEL cells assessed as reduction in plaque formation after 5 days; assay type: functional, organism-based; settings: Human alphaherpesvirus 3, 07-1, HEL, 120 h
[5] = Cytostatic activity against human HEL cells after 3 days by coulter counter method; assay type: ADME, cell-based

| Compound | EC50 (Human alphaherpesvirus 3 [1]) | Activity (Human betaherpesvirus 5 [2]) | Activity (Human betaherpesvirus 5 [3]) | EC50 (Human alphaherpesvirus 3 [4]) | CC50 at 72 h [5] |
| --- | --- | --- | --- | --- | --- |
| CC(=O)C1=C(C)N(Cc2cn(Cc3ccccc3)nn2)C(=O)NC1c1ccc(OCc2cn(Cc3ccccc3)nn2)cc1 (stereo unspecified) | 11.3 µM | inactive | inactive | 10.8 µM | > 100 µM |
| COc1ccc(OC)c(C2NC(=O)N(Cc3cn(Cc4ccc([N+](=O)[O-])cc4)nn3)C(C)=C2C(C)=O)c1 (stereo unspecified) | 44.7 µM | inactive | inactive | 48.1 µM |  |
| O=c1[nH]c(=O)n([C@H]2C[C@H](O)[C@@H](CO)O2)cc1/C=C/Br [BRIVUDINE] | 0.025 µM |  |  | 104 µM | > 300 µM |
| CC(=O)C1=C(C)N(Cc2cn(Cc3ccc([N+](=O)[O-])cc3)nn2)C(=O)N(Cc2cn(Cc3ccc([N+](=O)[O-])cc3)nn2)C1c1ccccc1 (stereo unspecified) | 3.62 µM | inactive | inactive | 7.85 µM | > 100 µM |
| COc1ccc(OC)c(C2C(C(C)=O)=C(C)N(Cc3cn(Cc4ccccc4)nn3)C(=O)N2Cc2cn(Cc3ccccc3)nn2)c1 (stereo unspecified) | 9.85 µM | inactive | inactive | 8.87 µM | > 100 µM |
| CC(=O)C1=C(C)N(Cc2cn(Cc3ccc([N+](=O)[O-])cc3)nn2)C(=O)N(Cc2cn(Cc3ccc([N+](=O)[O-])cc3)nn2)C1c1ccc(OCc2cn(Cc3ccc([N+](=O)[O-])cc3)nn2)cc1 (stereo unspecified) | 69.9 µM | inactive | inactive | > 20 µM |  |
| COc1ccc(OC)c(C2NC(=O)N(Cc3cn(Cc4ccccc4)nn3)C(C)=C2C(C)=O)c1 (stereo unspecified) | 48.9 µM | inactive | inactive | 50.2 µM |  |
| CC(=O)C1=C(C)N(Cc2cn(Cc3ccccc3)nn2)C(=O)N(Cc2cn(Cc3ccccc3)nn2)C1c1ccc(N(C)C)cc1 (stereo unspecified) | 23.2 µM | inactive | inactive | 17 µM |  |
| CC(=O)C1=C(C)N(Cc2cn(Cc3ccccc3)nn2)C(=O)N(Cc2cn(Cc3ccccc3)nn2)C1c1ccccc1 (stereo unspecified) | 8.38 µM | inactive | inactive | 6.08 µM | 7.02 µM |
| Nc1nc2c(ncn2COCCO)c(=O)[nH]1 [ACYCLOVIR] | 2.35 µM |  |  | 133 µM | > 440 µM |
| CC(=O)C1=C(C)N(Cc2cn(Cc3ccc([N+](=O)[O-])cc3)nn2)C(=O)NC1c1ccccc1 (stereo unspecified) | 48.9 µM | inactive | inactive | 42.6 µM |  |
